# Reference: US11396502B2, “Substituted heterocyclic derivatives as PI3K inhibitors” (Incyte Corporation, priority 2018, dated 2022)
# Where a name gives a salt, the structure may show the parent alone.
# Experiments:
# [1] = tested on: Phosphorylated Ribosomal Protein S6 (RPS6) in THP-1 cells; assay: THP-1 RPS6 ELISA assay; assay type: cell-based, Human; settings: Homo sapiens, THP-1, serum starved THP-1 cells, 2 hours compound, 10 nM MCP-1 for 15 minutes, Phospho-RPS6 ELISA; read-out: PI3Kγ_THP1_RPS6_ELISA IC50
# Protocol: Example A. THP-1 RPS6 ELISA Assay
# To measure the Phosphorylated Ribosomal Protein S6 (RPS6) in cell lysates, THP-1 cells (Human Acute Monocytic Leukemia) are purchased from ATCC (Manassas, Va.) and maintained in RPMI with 10% FBS (Gibco/Life Technologies, Carlsbad, Calif.). For the assay, THP-1 cells are serum starved overnight in RPMI, then plated in RPMI (2×10^5 cells/well in 90 μL) into 96-well flat-bottom tissue culture treated plates (Corning, Corning, N.Y.), in the presence or absence of a concentration range of test compounds. Covered plates are incubated for 2 hours at 37° C., 5% CO2 then treated with or without 10 nM MCP-1 (MYBioSource, San Diego, Calif.) for 15 minutes at 37° C., 5% CO2. Plates are centrifuged at 1600 RPM and supernatants are removed. Cells are lysed in Lysis Buffer (Cell Signaling, Danvers, Mass.) with Protease Inhibitor (Calbiochem/EMD, Germany), PMSF (Sigma, St Louis Mo.), HALTS (Thermo Fisher, Rockford, Ill.) for 30 min on wet ice. Cell lysates are frozen at −80° C. before testing. The lysates are tested in the Human/Mouse/Rat Phospho-RPS6 ELISA (R&D Systems, Inc. Minn, Minn.). The plate is measured using a microplate reader (SpectraMax M5—Molecular Devices, LLC Sunnyvale, Calif.) set to 450 nm with a wavelength correction of 540. IC50 determination is performed by fitting the curve of inhibitor percent inhibition versus the log of the inhibitor concentration using the GraphPad Prism 5.0 software.
# PI3Kδ (p110δ/p85α) = PI3Kδ (p110δ/p85α) (Homo sapiens (Human), UniProt O00329); assay: PI3Kδ scintillation proximity assay; assay type: biochemical; settings: recombinant human PI3Kδ 3.4 nM, 20 μM PIP2, 2 μM ATP, 120 min, room temperature
# PI3Kδ (p110δ/p85α), sequence (O00329 whole entry): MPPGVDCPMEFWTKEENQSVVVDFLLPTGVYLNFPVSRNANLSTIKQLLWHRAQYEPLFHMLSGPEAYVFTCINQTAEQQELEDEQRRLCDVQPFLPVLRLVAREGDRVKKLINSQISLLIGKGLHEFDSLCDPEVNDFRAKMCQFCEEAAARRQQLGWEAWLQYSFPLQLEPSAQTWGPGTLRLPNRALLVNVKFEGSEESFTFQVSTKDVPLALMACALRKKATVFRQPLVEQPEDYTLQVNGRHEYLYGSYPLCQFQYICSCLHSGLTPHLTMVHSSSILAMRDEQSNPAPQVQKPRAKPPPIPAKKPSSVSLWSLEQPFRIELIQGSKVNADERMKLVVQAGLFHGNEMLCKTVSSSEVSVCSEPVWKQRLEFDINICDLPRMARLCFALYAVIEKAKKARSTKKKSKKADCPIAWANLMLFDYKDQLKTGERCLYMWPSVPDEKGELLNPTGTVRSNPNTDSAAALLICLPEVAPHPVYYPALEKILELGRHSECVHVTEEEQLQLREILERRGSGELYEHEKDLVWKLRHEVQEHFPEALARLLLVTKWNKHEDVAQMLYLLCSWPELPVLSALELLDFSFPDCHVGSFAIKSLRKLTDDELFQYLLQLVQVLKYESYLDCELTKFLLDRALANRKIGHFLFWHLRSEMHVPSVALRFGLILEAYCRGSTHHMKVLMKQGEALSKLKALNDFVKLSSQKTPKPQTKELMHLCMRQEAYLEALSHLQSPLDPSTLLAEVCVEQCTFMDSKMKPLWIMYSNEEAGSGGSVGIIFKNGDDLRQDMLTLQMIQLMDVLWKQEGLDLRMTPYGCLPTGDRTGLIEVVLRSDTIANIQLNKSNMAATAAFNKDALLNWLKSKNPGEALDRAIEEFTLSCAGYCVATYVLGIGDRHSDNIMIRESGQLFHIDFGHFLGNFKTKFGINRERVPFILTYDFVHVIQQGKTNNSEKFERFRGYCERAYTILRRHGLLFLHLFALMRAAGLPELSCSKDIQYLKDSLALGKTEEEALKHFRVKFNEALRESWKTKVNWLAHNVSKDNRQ
# PI3Kδ (p110δ/p85α), sequence (P27986 whole entry partner): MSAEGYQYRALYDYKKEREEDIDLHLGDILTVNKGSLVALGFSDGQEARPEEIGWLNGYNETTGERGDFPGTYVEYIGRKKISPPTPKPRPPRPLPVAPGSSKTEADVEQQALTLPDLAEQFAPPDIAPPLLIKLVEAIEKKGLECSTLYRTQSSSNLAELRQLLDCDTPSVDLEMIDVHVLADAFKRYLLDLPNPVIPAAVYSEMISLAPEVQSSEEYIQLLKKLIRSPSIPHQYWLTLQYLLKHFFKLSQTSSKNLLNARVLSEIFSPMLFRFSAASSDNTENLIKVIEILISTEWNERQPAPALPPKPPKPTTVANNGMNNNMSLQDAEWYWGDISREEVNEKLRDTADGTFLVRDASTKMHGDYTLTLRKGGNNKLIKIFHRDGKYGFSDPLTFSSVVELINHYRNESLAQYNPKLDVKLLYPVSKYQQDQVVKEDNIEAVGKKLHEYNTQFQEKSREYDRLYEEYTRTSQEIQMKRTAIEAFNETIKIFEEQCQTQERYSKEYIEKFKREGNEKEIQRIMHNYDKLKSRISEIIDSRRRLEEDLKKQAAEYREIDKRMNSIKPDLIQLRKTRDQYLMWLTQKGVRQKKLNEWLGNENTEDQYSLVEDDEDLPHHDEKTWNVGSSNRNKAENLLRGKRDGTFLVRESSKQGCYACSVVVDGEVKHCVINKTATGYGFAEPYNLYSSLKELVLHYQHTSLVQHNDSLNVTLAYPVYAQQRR
# Description: Example C. PI3Kδ Scintillation Proximity Assay Materials: [γ-^33P]ATP (10 mCi/mL) and Wheat Germ Agglutinin (WGA) YSi SPA Scintillation Beads was purchased from Perkin Elmer (Waltham, Mass.). Lipid kinase substrate, D-myo-Phosphatidylinositol 4,5-bisphosphate (PtdIns(4,5)P2)D (+)-sn-1,2-di-O-octanoylglyceryl, 3-O-phospho linked (PIP2), CAS 204858-53-7, was purchased from Echelon Biosciences (Salt Lake City, Utah). PI3Kδ (p110δ/p85α) Recombinant Human Protein was purchased from Eurofins (St Charles, Mo.). ATP, MgCl2, DTT, EDTA, MOPS and CHAPS were purchased from Sigma Aldrich (St. Louis, Mo.). The kinase reaction was conducted in polystyrene 384-well Greiner Bio-one white plate from Thermo Fisher Scientific in a final volume of 25 μL. Inhibitors were first diluted serially in DMSO and added to the plate wells before the addition of other reaction components. The final concentration of DMSO in the assay was 2%. The PI3Kδ assay was carried out at room temperature in 20 mM MOPS, pH 6.7, 10 mM MgCl2, 5 mM DTT and CHAPS 0.03%. Reactions were initiated by the addition of ATP, the final reaction mixture consisted of 20 μM PIP2, 2 μM ATP, 0.5 μCi [γ-^33P] ATP, 3.4 nM PI3Kδ. Reactions were incubated for 120 min and terminated by the addition of 40 μL SPA beads suspended in quench buffer: 163 mM potassium phosphate pH 7.8, 20% glycerol, 25 mM EDTA. The final concentration of SPA beads is 1.0 mg/mL. After the plate sealing, plates were shaken overnight at room temperature and centrifuged at 1500 rpm for 10 min, the radioactivity of the product was determined by scintillation counting on Topcount (PerkinElmer). IC50 determination was performed by fitting the curve of percent of the solvent control activity versus the log of the inhibitor concentration using the GraphPad Prism 6.0 software.
# PI3Kγ (p110γ) = PI3Kγ (p110γ) (Homo sapiens (Human), UniProt P48736); assay: PI3K-γ scintillation proximity assay; assay type: biochemical; settings: recombinant human PI3Kγ 13 nM, 20 μM PIP2, 2 μM ATP, 120 min, room temperature
# PI3Kγ (p110γ), sequence (P48736 whole entry): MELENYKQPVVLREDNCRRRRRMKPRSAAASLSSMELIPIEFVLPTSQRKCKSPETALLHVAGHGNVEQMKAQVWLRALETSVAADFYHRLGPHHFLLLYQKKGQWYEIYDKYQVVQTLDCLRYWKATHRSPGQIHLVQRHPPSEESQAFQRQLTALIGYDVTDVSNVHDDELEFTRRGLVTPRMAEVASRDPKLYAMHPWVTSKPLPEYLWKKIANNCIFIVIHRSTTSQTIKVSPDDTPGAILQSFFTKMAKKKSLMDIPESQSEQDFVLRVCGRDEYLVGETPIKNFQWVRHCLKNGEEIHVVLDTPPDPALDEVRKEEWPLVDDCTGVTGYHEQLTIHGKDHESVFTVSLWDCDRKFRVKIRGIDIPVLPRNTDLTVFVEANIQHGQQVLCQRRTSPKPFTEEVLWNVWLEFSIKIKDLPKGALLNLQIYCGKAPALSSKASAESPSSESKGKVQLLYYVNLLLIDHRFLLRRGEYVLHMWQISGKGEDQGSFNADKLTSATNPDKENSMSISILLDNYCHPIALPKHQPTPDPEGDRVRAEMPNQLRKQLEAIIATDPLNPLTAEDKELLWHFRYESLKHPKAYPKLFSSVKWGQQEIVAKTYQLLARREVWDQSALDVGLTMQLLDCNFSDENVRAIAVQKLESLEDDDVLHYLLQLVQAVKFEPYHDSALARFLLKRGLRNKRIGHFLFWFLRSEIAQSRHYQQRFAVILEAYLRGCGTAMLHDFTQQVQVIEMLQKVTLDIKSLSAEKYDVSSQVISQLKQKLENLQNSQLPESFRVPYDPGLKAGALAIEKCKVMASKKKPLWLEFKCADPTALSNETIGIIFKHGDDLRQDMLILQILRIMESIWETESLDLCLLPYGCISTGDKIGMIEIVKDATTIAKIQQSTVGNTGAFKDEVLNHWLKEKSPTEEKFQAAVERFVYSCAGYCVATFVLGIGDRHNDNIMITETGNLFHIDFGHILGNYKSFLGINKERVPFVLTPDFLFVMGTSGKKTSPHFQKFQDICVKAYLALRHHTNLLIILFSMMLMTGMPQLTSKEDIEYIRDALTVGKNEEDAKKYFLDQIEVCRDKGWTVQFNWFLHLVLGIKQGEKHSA
# Description: Example B. PI3K-γ Scintillation Proximity Assay Materials: [γ-^33P]ATP (10 mCi/mL) and Wheat Germ Agglutinin (WGA) YSi SPA Scintillation Beads was purchased from Perkin Elmer (Waltham, Mass.). Lipid kinase substrate, D-myo-Phosphatidylinositol 4,5-bisphosphate (PtdIns(4,5)P2)D (+)-sn-1,2-di-O-octanoylglyceryl, 3-O-phospho linked (PIP2), CAS 204858-53-7, was purchased from Echelon Biosciences (Salt Lake City, Utah). PI3Kγ (p110γ) Recombinant Human Protein was purchased from Life technology (Grand Island, N.Y.). ATP, MgCl2, DTT, EDTA, MOPS and CHAPS were purchased from Sigma Aldrich (St. Louis, Mo.). The kinase reaction was conducted in polystyrene 384-well Greiner Bio-one white plate from Thermo Fisher Scientific in a final volume of 25 μL. Inhibitors were first diluted serially in DMSO and added to the plate wells before the addition of other reaction components. The final concentration of DMSO in the assay was 2%. The PI3Kγ assay was carried out at room temperature in 20 mM MOPS, pH 6.7, 10 mM MgCl2, 5 mM DTT and CHAPS 0.03%. Reactions were initiated by the addition of ATP, the final reaction mixture consisted of 20 μM PIP2, 2 μM ATP, 0.5 μCi [γ-^33P] ATP, 13 nM PI3Kγ. Reactions were incubated for 120 min and terminated by the addition of 40 μL SPA beads suspended in quench buffer: 163 mM potassium phosphate pH 7.8, 20% glycerol, 25 mM EDTA. The final concentration of SPA beads is 1.0 mg/mL. After the plate sealing, plates were shaken overnight at room temperature and centrifuged at 1500 rpm for 10 min, the radioactivity of the product was determined by scintillation counting on Topcount (Perkin-Elmer). IC50 determination was performed by fitting the curve of percent of the solvent control activity versus the log of the inhibitor concentration using the GraphPad Prism 6.0 software.
SMILES,IC50 [1] [nM],IC50 (PI3Kδ (p110δ/p85α)) [nM],IC50 (PI3Kγ (p110γ)) [nM]
"Cc1[nH]c(-c2cc(-c3cc4c(c(S(C)(=O)=O)c3)C(=O)N([C@@H](C)C3CC3)C4)ccn2)nc1C(=O)NC1CCC1 [Example 7k, (S)-N-Cyclobutyl-2-(4-(2-(1-cyclopropylethyl)-7-(methylsulfonyl)-1-oxoisoindolin-5-yl)pyridin-2-yl)-4-methyl-1H-imidazole-5-carboxamide, trifluoroacetate salt]",100 to 500,100 to 500,< 100
"Cc1[nH]c(-c2cc(-c3cc4c(c(S(C)(=O)=O)c3)C(=O)N([C@@H](C)C3CC3)C4)ccn2)nc1C(=O)NC1CN(C)C1 [Example 7m, (S)-2-(4-(2-(1-Cyclopropylethyl)-7-(methylsulfonyl)-1-oxoisoindolin-5-yl)pyridin-2-yl)-4-methyl-N-(1-methylazetidin-3-yl)-1H-imidazole-5-carboxamide, trifluoroacetate salt]",500 to 1000,500 to 2000,< 100
"Cc1[nH]c(-c2cc(-c3cc4c(c(S(C)(=O)=O)c3)C(=O)N([C@@H](C)C3CC3)C4)ccn2)nc1C(=O)N(C)C1CCOCC1 [Example 7o, (S)-2-(4-(2-(1-Cyclopropylethyl)-7-(methylsulfonyl)-1-oxoisoindolin-5-yl)pyridin-2-yl)-N,4-dimethyl-N-(tetrahydro-2H-pyran-4-yl)-1H-imidazole-5-carboxamide, trifluoroacetate salt]",100 to 500,100 to 500,< 100
"Cc1[nH]c(-c2cc(-c3cc4c(c(S(C)(=O)=O)c3)C(=O)N([C@@H](C)C3CC3)C4)ccn2)nc1C(=O)N1CC2(COC2)C1 [Example 7p, (S)-2-(1-Cyclopropylethyl)-5-(2-(4-methyl-5-(2-oxa-6-azaspiro[3.3]heptane-6-carbonyl)-1H-imidazol-2-yl)pyridin-4-yl)-7-(methylsulfonyl)isoindolin-1-one, trifluoroacetate salt]",100 to 500,500 to 2000,< 100
"Cc1[nH]c(-c2cc(-c3cc4c(c(S(C)(=O)=O)c3)C(=O)N([C@@H](C)C3CC3)C4)ccn2)nc1C(N)=O [Example 7q, (S)-2-(4-(2-(1-Cyclopropylethyl)-7-(methylsulfonyl)-1-oxoisoindolin-5-yl)pyridin-2-yl)-4-methyl-1H-imidazole-5-carboxamide, trifluoroacetate salt]",> 1000,500 to 2000,< 100
"CCNC(=O)c1nc(-c2cc(-c3cc4c(c(S(C)(=O)=O)c3)C(=O)N([C@@H](C)C3CC3)C4)ccn2)[nH]c1C [Example 7r, (S)-2-(4-(2-(1-Cyclopropylethyl)-7-(methylsulfonyl)-1-oxoisoindolin-5-yl)pyridin-2-yl)-N-ethyl-4-methyl-1H-imidazole-5-carboxamide, trifluoroacetate salt]",100 to 500,500 to 2000,< 100
"CCN(C)C(=O)c1nc(-c2cc(-c3cc4c(c(S(C)(=O)=O)c3)C(=O)N([C@@H](C)C3CC3)C4)ccn2)[nH]c1C [Example 7s, (S)-2-(4-(2-(1-Cyclopropylethyl)-7-(methylsulfonyl)-1-oxoisoindolin-5-yl)pyridin-2-yl)-N-ethyl-N,4-dimethyl-1H-imidazole-5-carboxamide, trifluoroacetate salt]",500 to 1000,500 to 2000,< 100
"Cc1[nH]c(-c2cc(-c3cc4c(c(S(C)(=O)=O)c3)C(=O)N([C@@H](C)C3CC3)C4)ccn2)nc1C(=O)N(C)C(C)C [Example 7t, (S)-2-(4-(2-(1-Cyclopropylethyl)-7-(methylsulfonyl)-1-oxoisoindolin-5-yl)pyridin-2-yl)-N-isopropyl-N,4-dimethyl-1H-imidazole-5-carboxamide, trifluoroacetate salt]",100 to 500,500 to 2000,< 100
"Cc1[nH]c(-c2cc(-c3cc4c(c(S(C)(=O)=O)c3)C(=O)N([C@@H](C)C3CC3)C4)ccn2)nc1C(=O)N(C)C1CCC1 [Example 7u, (S)-N-Cyclobutyl-2-(4-(2-(1-cyclopropylethyl)-7-(methylsulfonyl)-1-oxoisoindolin-5-yl)pyridin-2-yl)-N,4-dimethyl-1H-imidazole-5-carboxamide, trifluoroacetate salt]",100 to 500,500 to 2000,< 100
"C[C@@H](C1CC1)N1Cc2cc(-c3cnnc(-c4ccn[nH]4)c3)cc(S(C)(=O)=O)c2C1=O [Example 9, (S)-5-(6-(1H-Pyrazol-5-yl)pyridazin-4-yl)-2-(1-cyclopropylethyl)-7-(methylsulfonyl)isoindolin-1-one Trifluoroacetate Salt]",> 1000,> 2000,100 to 500
"Cc1cc(-c2cc(-c3cc4c(c(S(C)(=O)=O)c3)C(=O)N([C@@H](C)C3CC3)C4)cnn2)[nH]n1 [Example 10, (S)-2-(1-Cyclopropylethyl)-5-(6-(3-methyl-1H-pyrazol-5-yl)pyridazin-4-yl)-7-(methylsulfonyl)isoindolin-1-one, trifluoroacetate salt]",> 1000,> 2000,100 to 500
"Cc1nnc(-c2cc(-c3cc4c(c(S(C)(=O)=O)c3)C(=O)N([C@@H](C)C3CC3)C4)ccn2)[nH]1 [Example 12, (S)-2-(1-Cyclopropylethyl)-5-(2-(5-methyl-4H-1,2,4-triazol-3-yl)pyridin-4-yl)-7-(methylsulfonyl)isoindolin-1-one]",> 1000,> 2000,< 100
"Cc1cc(-c2cc(-c3cc4c(c(S(C)(=O)=O)c3)C(=O)N([C@@H](C)C3CC3)C4)ccn2)[nH]n1 [Example 14, (S)-2-(1-Cyclopropylethyl)-5-(2-(3-methyl-1H-pyrazol-5-yl)pyridin-4-yl)-7-(methylsulfonyl)isoindolin-1-one, Trifluoroacetate Salt]",> 1000,> 2000,< 100
